These results are taken from patent US20070149547A1, “Bipyridyl amides as modulators of metabotropic glutamate receptor-5” (priority 2004, published 2007).

One may read the IC50 as the concentration that gives 50% inhibition.

T1 sequence (P41594 21-1180 isoform P41594-2 limits assumed): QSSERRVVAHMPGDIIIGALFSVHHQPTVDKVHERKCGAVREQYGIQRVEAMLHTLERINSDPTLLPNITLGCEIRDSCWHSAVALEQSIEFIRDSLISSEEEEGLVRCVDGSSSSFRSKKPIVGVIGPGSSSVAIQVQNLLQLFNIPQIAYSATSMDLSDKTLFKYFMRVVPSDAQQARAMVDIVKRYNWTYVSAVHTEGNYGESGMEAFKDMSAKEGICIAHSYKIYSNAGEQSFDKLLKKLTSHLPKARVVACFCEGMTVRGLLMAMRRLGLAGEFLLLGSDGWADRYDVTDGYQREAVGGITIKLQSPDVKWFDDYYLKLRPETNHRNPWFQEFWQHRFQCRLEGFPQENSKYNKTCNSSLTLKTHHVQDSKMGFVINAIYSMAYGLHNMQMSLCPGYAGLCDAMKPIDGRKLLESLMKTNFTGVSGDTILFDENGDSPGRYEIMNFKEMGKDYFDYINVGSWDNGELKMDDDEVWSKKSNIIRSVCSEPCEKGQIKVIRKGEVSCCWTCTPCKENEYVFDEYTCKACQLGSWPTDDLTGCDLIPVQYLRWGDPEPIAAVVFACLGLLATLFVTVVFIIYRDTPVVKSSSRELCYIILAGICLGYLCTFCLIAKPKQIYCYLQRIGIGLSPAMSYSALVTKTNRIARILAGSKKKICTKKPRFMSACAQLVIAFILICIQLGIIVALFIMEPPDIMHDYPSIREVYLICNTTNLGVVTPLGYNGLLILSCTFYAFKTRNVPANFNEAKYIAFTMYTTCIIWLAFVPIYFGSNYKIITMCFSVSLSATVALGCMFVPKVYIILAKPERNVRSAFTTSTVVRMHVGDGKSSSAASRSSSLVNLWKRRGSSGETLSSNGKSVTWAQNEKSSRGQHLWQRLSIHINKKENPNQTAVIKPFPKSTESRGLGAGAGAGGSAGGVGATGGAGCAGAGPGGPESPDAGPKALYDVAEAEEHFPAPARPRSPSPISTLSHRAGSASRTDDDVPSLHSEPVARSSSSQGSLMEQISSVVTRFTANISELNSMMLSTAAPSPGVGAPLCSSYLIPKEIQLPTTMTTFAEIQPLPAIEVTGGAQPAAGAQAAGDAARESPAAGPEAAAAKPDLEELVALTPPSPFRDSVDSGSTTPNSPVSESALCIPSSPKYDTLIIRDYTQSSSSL

This assay addresses T1, hmGluR5a receptor (Homo sapiens, UniProt P41594).
T1 construct: expressed in transfected cells; host or cells: HEK293 cells (hm5a cell line)
The experiment in a line: Calcium flux assay (fura-2, glutamate-evoked [Ca2+]i). The class given is cell-based. As to conditions: assay not given; follows the calcium flux / PI statement; read-out: IC50 (mGluR5 inhibitory activity). The method, then:
The compounds of this invention were tested against the hmGluR5a receptor stably expressed in mouse fibroblast Ltk^− cells (the hmGluR5a/L38-20 cell line) and activity was detected by changes in [Ca^++]i, measured using the fluorescent Ca^++-sensitive dye, fura-2. InsP assays were performed in mouse fibroblast Ltk^− cells (LM5a cell line) stably expressing hmGluR5a. The assays described in International Patent Publication WO 0116121 can be used.
The activity of compounds was examined against the hmGluR5a receptor stably expressed in human embryonic kidney HEK293 cells (the hmGluR5a cell line designated hm5a). See generally Daggett et al., Neuropharmacology 34:871-886 (1995). Receptor activity was detected by changes in intracellular calcium ([Ca^2+]i) measured using the fluorescent calcium-sensitive dye, fura-2. The hm5a cells were plated onto 96-well plates, and loaded with 3 µM fura-2 for 1 h. Unincorporated dye was washed from the cells, and the cell plate was transferred to a 96-channel fluorimeter (SIBIA-SAIC, La Jolla, Calif.) which is integrated into a fully automated plate handling and liquid delivery system. Cells were excited at 350 and 385 nm with a xenon source combined with optical filters. Emitted light was collected from the sample through a dichroic mirror and a 510 nm interference filter and directed into a cooled CCD camera (Princeton Instruments). Image pairs were captured approximately every 1 s, and ratio images were generated after background subtraction. After a basal reading of 20 s, an EC80 concentration of glutamate (10 µM) was added to the well, and the response evaluated for another 60 s. The glutamate-evoked increase in [Ca′]i in the presence of the screening compound was compared to the response of glutamate alone (the positive control).
(A change in cytosolic calcium serves as a functional read-out for many receptors and channels.)
For the molecule `N#Cc1cccc(NC(=O)c2nc(Cl)cnc2N)n1` [Example 29, 3-Amino-6-chloro-N-(6-cyanopyridin-2-yl)pyrazine-2-carboxamide], the IC50 is 500 nM.
For the molecule `Nc1nc(C(F)(F)F)cnc1C(=O)Nc1ccccn1` [Example 38, 3-Amino-N-pyridin-2-yl-5-(trifluoromethyl)pyrazine-2-carboxamide], the IC50 was 1300 nM.
Take `Cc1cccc(C(=O)Nc2cccc(-c3ccccc3)n2)n1` [Example 58, 6-Methyl-N-(6-phenylpyridin-2-yl)pyridine-2-carboxamide]: the IC50 amounted to 3000 nM.
